Results as given in patent US20160354429A1, “Use of Melanocortins to Treat Insulin Sensitivity” (Ipsen Pharma S.A.S., priority 2007, published 2016).
Bridge positions count the residues as written; N and C are the ends. Square brackets hold non-standard residues; d marks the D form. Peptide text beside a SMILES is read from it. GABA = NCCCC(=O)O

Assays:
hMC1-R = target: T1, hMC1-R (Homo sapiens, UniProt Q01726); assay: Radioligand binding assay, hMC1-R; details: competition with [125I]-NDP-α-MSH, CHO-K1 cell membranes
T1 construct: expressed in transfected cells

hMC5-R [1] = target: T2, hMC5-R (Homo sapiens, UniProt P33032); assay: cyclic AMP bioassay, hMC5-R; assay type: cell-based
T2 construct: expressed in transfected cells
Procedure: Intracellular cyclic AMP (cAMP) levels were determined by an electrochemiluminescence (ECL) assay (Meso Scale Discovery®, Gaithersburg, Md.; referred to hereinafter as MSD). […] Transgenic CHO-K1 cells stably expressing hMC receptor subtypes 1, 3, 4 or 5 were dispensed at a density of approximately 7,000 cells/well in 384-well Multi-Array® plates (MSD) containing integrated carbon electrodes and coated with anti-cAMP antibody. Increasing concentrations of the test compounds were added and the cells were incubated for approximately 40 minutes at approximately 37° C. […] At the end of the second incubation period read buffer (Tris-buffered solution containing an ECL co-reactant and Triton X-100 at ph 7.8) was added and the cAMP levels in the cell lysates were immediately determined by ECL detection with a Sector Imager 6000 Reader® (MSD). Data were analyzed using a computer-assisted non-linear regression analysis (XL fit; IDBS) and reported as either an EC50 value or a Kb value.

hMC3-R = target: T3, hMC3-R (Homo sapiens, UniProt P41968); assay: Radioligand binding assay, hMC3-R; details: competition with [125I]-NDP-α-MSH, CHO-K1 cell membranes
T3 construct: expressed in transfected cells

hMC4-R = target: T4, hMC4-R (Homo sapiens, UniProt P32245); assay: Radioligand binding assay, hMC4-R; details: competition with [125I]-NDP-α-MSH, CHO-K1 cell membranes
T4 construct: expressed in transfected cells

hMC5-R [2] = target: T2, hMC5-R; assay: Radioligand binding assay, hMC5-R; details: competition with [125I]-NDP-α-MSH, CHO-K1 cell membranes
Procedure: Cellular membranes used for the in vitro receptor binding assays were obtained from transgenic CHO-K1 cells stably expressing hMC-R receptor subtypes 1, 3, 4 or 5. […] The pellets were resuspended in the same buffer and centrifuged at 50,000 g for 10 minutes at approximately 4° C. The washed pellets containing the cellular membranes were stored at approximately −80° C.
Filters were washed three times with 50 mM Tris-HCl at pH 7.4 at a temperature of approximately 0-4° C. and then assayed for radioactivity using a Packard Topcount® scintillation counter. Binding data were analyzed by computer-assisted non-linear regression analysis (XL fit; IDBS).

T2 sequence (P33032 whole entry): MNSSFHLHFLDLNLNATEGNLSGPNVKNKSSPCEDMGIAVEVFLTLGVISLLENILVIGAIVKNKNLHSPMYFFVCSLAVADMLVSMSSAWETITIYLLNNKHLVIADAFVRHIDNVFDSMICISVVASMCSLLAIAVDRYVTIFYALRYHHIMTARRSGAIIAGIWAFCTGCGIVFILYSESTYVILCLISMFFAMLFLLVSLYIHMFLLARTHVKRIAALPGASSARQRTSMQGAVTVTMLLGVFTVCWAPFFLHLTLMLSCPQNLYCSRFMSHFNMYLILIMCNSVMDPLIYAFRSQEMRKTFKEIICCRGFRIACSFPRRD
T1 sequence (Q01726 whole entry): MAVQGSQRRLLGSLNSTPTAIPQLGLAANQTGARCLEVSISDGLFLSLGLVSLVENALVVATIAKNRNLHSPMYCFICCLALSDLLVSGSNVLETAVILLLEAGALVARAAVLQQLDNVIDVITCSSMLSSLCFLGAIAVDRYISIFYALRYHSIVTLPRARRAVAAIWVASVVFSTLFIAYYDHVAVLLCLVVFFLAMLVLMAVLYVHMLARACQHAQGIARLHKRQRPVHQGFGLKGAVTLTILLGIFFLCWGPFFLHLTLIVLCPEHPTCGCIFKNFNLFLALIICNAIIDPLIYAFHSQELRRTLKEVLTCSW
T3 sequence (P41968 whole entry): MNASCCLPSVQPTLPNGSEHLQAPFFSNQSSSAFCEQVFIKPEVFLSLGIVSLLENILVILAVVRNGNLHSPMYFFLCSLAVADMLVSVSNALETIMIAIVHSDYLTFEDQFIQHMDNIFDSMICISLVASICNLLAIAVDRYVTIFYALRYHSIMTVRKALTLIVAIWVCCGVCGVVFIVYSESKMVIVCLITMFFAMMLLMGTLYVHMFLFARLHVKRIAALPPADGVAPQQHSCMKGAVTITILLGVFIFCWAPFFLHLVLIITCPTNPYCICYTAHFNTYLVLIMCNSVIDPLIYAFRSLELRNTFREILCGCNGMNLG
T4 sequence (P32245 whole entry): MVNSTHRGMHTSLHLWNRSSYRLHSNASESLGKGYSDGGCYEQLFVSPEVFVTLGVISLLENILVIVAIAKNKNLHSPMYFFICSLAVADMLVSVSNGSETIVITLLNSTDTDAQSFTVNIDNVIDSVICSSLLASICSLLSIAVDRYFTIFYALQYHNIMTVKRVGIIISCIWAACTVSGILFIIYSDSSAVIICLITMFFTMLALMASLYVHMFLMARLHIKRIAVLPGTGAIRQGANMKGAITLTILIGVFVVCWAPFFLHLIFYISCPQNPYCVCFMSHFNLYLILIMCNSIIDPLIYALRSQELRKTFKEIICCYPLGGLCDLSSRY

Structure (SMILES) | Ki (hMC1-R) | EC50 (hMC5-R [1]) | Ki (hMC3-R) | Ki (hMC4-R) | Ki (hMC5-R [2])
CCCC[C@H](NC(C)=O)C(=O)N[C@H]1CSSC[C@@H](C(N)=O)NC(=O)CCNC(=O)[C@H](Cc2c[nH]c3ccccc23)NC(=O)[C@H](CCCNC(=N)N)NC(=O)[C@@H](Cc2ccccc2)NC(=O)[C@H](Cc2c[nH]cn2)NC(=O)[C@@H](C)NC1=O [Ac-Nle-c(Cys-D-Ala-His-D-Phe-Arg-Trp-β-Ala-Cys)-NH2] | 0.995 nM |  |  |  | 
CC(=O)N[C@@H](CCCNC(=N)N)C(=O)N[C@H]1CSSC(C)(C)[C@@H](C(N)=O)NC(=O)[C@H](Cc2c[nH]c3ccccc23)NC(=O)[C@H](CCCNC(=N)N)NC(=O)[C@@H](Cc2ccccc2)NC(=O)[C@H](Cc2c[nH]cn2)NC(=O)[C@@H](C)NC1=O [Ac-Arg-c(Cys-D-Ala-His-D-Phe-Arg-Trp-Pen)-NH2] |  | ≥ 10000 nM |  |  | 
CC(=O)N[C@@H](Cc1ccccc1)C(=O)N[C@H]1CSSC[C@@H](C(N)=O)NC(=O)CCCNC(=O)[C@H](Cc2c[nH]c3ccccc23)NC(=O)[C@H](CCCNC(=N)N)NC(=O)[C@@H](Cc2ccccc2)NC(=O)[C@H](Cc2c[nH]cn2)NC1=O [Ac-Phe-c(Cys-His-D-Phe-Arg-Trp-Gaba-Cys)-NH2] (Ac-FCH[dF]RW[GABA]C-NH2; disulfide 2-8) | 0.254 nM |  | 18.5 nM | 2.13 nM | 0.714 nM
